# Target: PKMYT1 (Homo sapiens (Human), UniProt Q99640)
# Assay: PKMYT1 HTRF Assay
# Assay type: binding
# Conditions: Tracer 178, GST-Tb; compound 10 μM to 0.5 nM; read-out: MYT1 HTRF IC50
# Method: Example A: PKMYT1 HTRF Assay
# Compound serial dilution is performed by Echo, and the final concentrations vary from 10 μM to 0.5 nM. This was filled by the addition of 5 μL/well of Enzyme solution to the assay plate containing the compound. The plate was centrifuged at 1000 rpm for 1 minute, and incubate 15 minutes at 25 ? . Then 5 μL/well of tracer solution (Tracer 178) was added to initiate the reaction, and incubate for 60 minutes at 25° C. Next 5 μL GST-Tb was added into the assay plate, the plate was centrifuged at 1000 rpm for 1 minute, and incubate for 15 minutes at 25 ? . The assay plate was read on Envision.
# PKMYT1, sequence (Q99640 whole entry): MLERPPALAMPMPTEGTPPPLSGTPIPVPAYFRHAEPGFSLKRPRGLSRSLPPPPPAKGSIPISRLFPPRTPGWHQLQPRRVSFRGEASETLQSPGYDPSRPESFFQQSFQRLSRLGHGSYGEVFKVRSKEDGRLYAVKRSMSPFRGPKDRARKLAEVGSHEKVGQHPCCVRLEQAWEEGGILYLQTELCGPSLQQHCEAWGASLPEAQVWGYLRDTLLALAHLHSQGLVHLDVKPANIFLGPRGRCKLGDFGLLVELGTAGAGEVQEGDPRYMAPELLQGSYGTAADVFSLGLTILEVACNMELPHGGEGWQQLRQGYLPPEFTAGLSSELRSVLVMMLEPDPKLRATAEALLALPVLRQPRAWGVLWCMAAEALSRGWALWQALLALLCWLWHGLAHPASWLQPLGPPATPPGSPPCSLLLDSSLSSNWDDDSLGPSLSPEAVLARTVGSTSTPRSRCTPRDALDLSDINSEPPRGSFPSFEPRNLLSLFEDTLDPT
row,SMILES,IC50 [µM]
1,"Cc1ccc(O)c(C)c1-c1cnc2[nH]c(-c3cnc(N4CC(C)(O)C4)nc3)cc2c1C#N [Example 97, (R)-5-(3-hydroxy-2,6-dimethylphenyl)-2-(2-(3-hydroxy-3-methylazetidin-1-yl)pyrimidin-5-yl)-1H-pyrrolo[2,3-b]pyridine-4-carbonitrile]",< 0.01
2,"Cc1ccc(O)c(C)c1-c1cnc2[nH]c(-c3cnc(N4CC5CC4CO5)nc3)c(Cl)c2c1C#N (stereo not drawn) [Example 44, 2-(2-(2-oxa-5-azabicyclo[2.2.1]heptan-5-yl)pyrimidin-5-yl)-3-chloro-5-(3-hydroxy-2,6-dimethylphenyl)-1H-pyrrolo[2,3-b]pyridine-4-carbonitrile]",< 0.01
3,"Cc1ncc(-c2cc3c(C)c(-c4c(C)ccc(O)c4C)cnc3[nH]2)cn1 [Example 26, (R)-2,4-dimethyl-3-(4-methyl-2-(2-methylpyrimidin-5-yl)-1H-pyrrolo[2,3-b]pyridin-5-yl)phenol]",< 0.01
4,"CCc1c(O)ccc(C)c1-c1cnc2[nH]c(-c3cnc(C)nc3)cc2c1C#N [Example 90, 5-(2-ethyl-3-hydroxy-6-methylphenyl)-2-(2-methylpyrimidin-5-yl)-1H-pyrrolo[2,3-b]pyridine-4-carbonitrile]",0.05 to 0.5
5,"Cc1ccc(O)c(C)c1-c1cnc2[nH]c(-c3ccc(N4CCN(C)CC4)nc3C)nc2c1C [Example 2, 2,4-dimethyl-3-(7-methyl-2-(2-methyl-6-(4-methylpiperazin-1-yl)pyridin-3-yl)-3H-imidazo[4,5-b]pyridin-6-yl)phenol]",0.5 to 5
6,"Cc1ccc(O)c(C)c1-c1cnc2[nH]c(-c3cnc(N4CC(C(=O)O)C4)nc3)c(Cl)c2c1C#N [Example 70, (R)-1-(5-(3-chloro-4-cyano-5-(3-hydroxy-2,6-dimethylphenyl)-1H-pyrrolo[2,3-b]pyridin-2-yl)pyrimidin-2-yl)azetidine-3-carboxylic acid]",< 0.01
7,"Cc1ccc(-c2cc3c(Cl)c(-c4c(C)ccc(O)c4C)cnc3[nH]2)cn1 [Example 10, 3-(4-chloro-2-(6-methylpyridin-3-yl)-1H-pyrrolo[2,3-b]pyridin-5-yl)-2,4-dimethylphenol]",< 0.01
8,"Cc1ccc(O)c(C)c1-c1cnc2[nH]c(-c3cnc4[nH]ncc4c3)cc2c1C#N [Example 123, (S)-5-(3-hydroxy-2,6-dimethylphenyl)-2-(1H-pyrazolo[3,4-b]pyridin-5-yl)-1H-pyrrolo[2,3-b]pyridine-4-carbonitrile]",< 0.01
9,"Cc1ccc(O)c(C)c1-c1cnc2[nH]c(-c3cnc(C(C)(C)O)nc3)cc2c1 [Example 88, 3-(2-(2-(2-hydroxypropan-2-yl)pyrimidin-5-yl)-1H-pyrrolo[2,3-b]pyridin-5-yl)-2,4-dimethylphenol]",0.01 to 0.05
10,"Cc1ccc(O)c(C)c1-c1cnc2[nH]c(-c3ccc4scnc4c3)cc2c1 [Example 22, 3-(2-(benzo[d]thiazol-5-yl)-1H-pyrrolo[2,3-b]pyridin-5-yl)-2,4-dimethylphenol]",0.05 to 0.5
11,"Cc1ccc(O)c(C)c1-c1cnc2[nH]c(-c3cnc(CO)nc3)cc2c1C#N [Example 58, (S)-5-(3-hydroxy-2,6-dimethylphenyl)-2-(2-(hydroxymethyl)pyrimidin-5-yl)-1H-pyrrolo[2,3-b]pyridine-4-carbonitrile]",< 0.01
12,"Cc1ccc(O)c(C)c1-c1cnc2[nH]c(-c3cnc(N4CCC4)nc3)cc2c1C#N [Example 49, (R)-2-(2-(azetidin-1-yl)pyrimidin-5-y1)-5-(3-hydroxy-2,6-dimethylphenyl)-1H-pyrrolo[2,3-b]pyridine-4-carbonitrile]",< 0.01
13,"Cc1ccc(O)c(C)c1-c1cnc2[nH]c(-n3cc(N)cn3)cc2c1C#N [Example 133, (S)-2-(4-amino-1H-pyrazol-1-yl)-5-(3-hydroxy-2,6-dimethylphenyl)-1H-pyrrolo[2,3-b]pyridine-4-carbonitrile]",< 0.01
14,"Cc1ccc(O)c(C)c1-c1cnc2[nH]c(-c3cnn(C4CCOCC4)c(=O)c3)c(Cl)c2c1C#N [Example 68, (R)-3-chloro-5-(3-hydroxy-2,6-dimethylphenyl)-2-(6-oxo-1-(tetrahydro-2H-pyran-4-yl)-1,6-dihydropyridazin-4-yl)-1H-pyrrolo[2,3-b]pyridine-4-carbonitrile]",< 0.01
15,"Cc1ncc(-c2[nH]c3ncc(-c4c(C)ccc(O)c4C)cc3c2Cl)cn1 [Example 79, 3-(3-chloro-2-(2-methylpyrimidin-5-yl)-1H-pyrrolo[2,3-b]pyridin-5-yl)-2,4-dimethylphenol]",0.01 to 0.05
16,"Cc1ccc(O)c(C)c1-c1cnc2[nH]c(-c3cnc(N4CCC(C(=O)O)C4)nc3)c(Cl)c2c1C#N [Example 72, (R)-1-(5-((R)-3-chloro-4-cyano-5-(3-hydroxy-2,6-dimethylphenyl)-1H-pyrrolo[2,3-b]pyridin-2-yl)pyrimidin-2-yl)pyrrolidine-3-carboxylic acid]",< 0.01
17,"CCc1c(O)ccc(C)c1-c1cnc2[nH]c(-c3cnc(C)nc3)cc2c1C#N [Example 91, (R)-5-(2-ethyl-3-hydroxy-6-methylphenyl)-2-(2-methylpyrimidin-5-yl)-1H-pyrrolo[2,3-b]pyridine-4-carbonitrile]",0.01 to 0.05
18,"Cc1ncc(-c2[nH]c3ncc(-c4c(C)ccc(O)c4C)c(C#N)c3c2C#CC2(O)COC2)cn1 [Example 111, (S)-5-(3-hydroxy-2,6-dimethylphenyl)-3-((3-hydroxyoxetan-3-yl)ethynyl)-2-(2-methylpyrimidin-5-yl)-1H-pyrrolo[2,3-b]pyridine-4-carbonitrile]",< 0.01
19,"Cc1ccc(O)c(C)c1-c1cnc2[nH]c(-c3cnc(N4CC(C(N)=O)C4)nc3)cc2c1C#N [Example 71, (R)-1-(5-(4-cyano-5-(3-hydroxy-2,6-dimethylphenyl)-1H-pyrrolo[2,3-b]pyridin-2-yl)pyrimidin-2-yl)azetidine-3-carboxamide]",< 0.01
20,"Cc1ccc(O)c(C)c1-c1cnc2[nH]c(-c3nnc[nH]3)cc2c1C#N [Example 135, 5-(3-hydroxy-2,6-dimethylphenyl)-2-(4H-1,2,4-triazol-3-yl)-1H-pyrrolo[2,3-b]pyridine-4-carbonitrile]",< 0.01
21,"CC#Cc1ncc(-c2cc3c(C#N)c(-c4c(C)ccc(O)c4C)cnc3[nH]2)cn1 [Example 104, (R)-5-(3-hydroxy-2,6-dimethylphenyl)-2-(2-(prop-1-yn-1-yl)pyrimidin-5-yl)-1H-pyrrolo[2,3-b]pyridine-4-carbonitrile]",< 0.01
22,"Cc1ccc(O)c(C)c1-c1cnc2[nH]c(-c3cnc(NCCO)nc3)cc2c1C#N [Example 101, (R)-5-(3-hydroxy-2,6-dimethylphenyl)-2-(2-((2-hydroxyethyl)amino)pyrimidin-5-yl)-1H-pyrrolo[2,3-b]pyridine-4-carbonitrile]",< 0.01
23,"Cc1ccc(O)c(C)c1-c1cnc2[nH]c(-c3cnc(C(N)=O)nc3)cc2c1C#N [Example 105, (R)-5-(4-cyano-5-(3-hydroxy-2,6-dimethylphenyl)-1H-pyrrolo[2,3-b]pyridin-2-yl)pyrimidine-2-carboxamide]",< 0.01
24,"Cc1ccc(O)c(C)c1-c1cnc2[nH]c(-c3cnc(OC(F)F)nc3)cc2c1C#N [Example 85, 2-(2-(difluoromethoxy)pyrimidin-5-yl)-5-(3-hydroxy-2,6-dimethylphenyl)-1H-pyrrolo[2,3-b]pyridine-4-carbonitrile]",< 0.01
